Source: US20240124444A1 (Celgene Corporation, priority 2020, published 2024)
Where two headings read alike, the source gives them in different places.

Test system: C. parvum strain UGA1
Assay: C. parvum growth inhibition assay (Nluc luminescence in HCT-8 cells)
Assay type: cell-based, Cryptosporidium parvum
Details: for inhibition at 1 µM / inhibition at 10 µM / EC50: Cryptosporidium parvum; for inhibition at 1 µM / inhibition at 10 µM: HCT-8; for inhibition at 1 µM: read-out: % inh @ 1 uM C. parvum; for inhibition at 10 µM: read-out: % inh @ 10 uM C. parvum; for EC50: HCT-8, 48 h, C. parvum growth inhibition in HCT-8 cells, 48 hours, 6 concentrations 10-0.04 μM
[1] = single point inhibition at 1 uM
[2] = single point inhibition at 10 uM
[3] = single point inhibition @ 10 uM

SMILES	EC50	inhibition at 1 µM [1]	inhibition at 10 µM [2]	further results
Cn1cc(C(=O)Nc2cc3[nH]c(-c4ccnc(O[C@H]5CC[C@@H](O)CC5)n4)cc3cn2)cn1 [Example 325, N-(2-(2-((1s,4s)-4-hydroxycyclohexyloxy)pyrimidin-4-yl)-1H-pyrrolo[3,2-c]pyridin-6-yl)-1-methyl-1H-pyrazole-4-carboxamide]	–	–	–	% inh @ 1 uM C. parvum [1]: D (single point inhibition values of 0-33% (activity level D)); % inh @ 10 uM C. parvum [2]: D (single point inhibition values of 0-33% (activity level D))
CC(=O)Nc1cc2[nH]c(-c3ccncc3)cc2cn1 [Example 181, N-(2-(pyridin-4-yl)-1H-pyrrolo[3,2-c]pyridin-6-yl)acetamide]	–	–	–	inhibition at 1 µM (single point inhibition @ 1 uM): 0 to 33%; inhibition at 10 µM [3]: 67 to 100%
Cc1cc(-c2cc3cnc(N(C)C(=O)C4CC4)cc3[nH]2)ccn1 [Example 86, N-methyl-N-(2-(2-methylpyridin-4-yl)-1H-pyrrolo[3,2-c]pyridin-6-yl)cyclopropanecarboxamide]	> 1 µM	–	–	inhibition at 1 µM (single point inhibition @ 1 uM): 33 to 66%; inhibition at 10 µM [3]: 0 to 33%
O=C(Nc1cc2[nH]c(-c3cnc[nH]3)cc2cn1)C1CC1 [Example 330, N-(2-(1H-imidazol-5-yl)-1H-pyrrolo[3,2-c]pyridin-6-yl)cyclopropanecarboxamide]	–	0 to 33%	0 to 33%	–
Cc1cc(-c2cc3cnc(NC(=O)C(C)C)cc3n2C)ncn1 [Example 118, N-(1-methyl-2-(6-methylpyrimidin-4-yl)-1H-pyrrolo[3,2-c]pyridin-6-yl)isobutyramide]	> 1 µM	–	–	–
Cn1cc(C(=O)Nc2cc3[nH]c(-c4ccnc(OCC(C)(C)C)n4)cc3cn2)cn1 [Example 319, 1-methyl-N-(2-(2-(neopentyloxy)pyrimidin-4-yl)-1H-pyrrolo[3,2-c]pyridin-6-yl)-1H-pyrazole-4-carboxamide]	–	0 to 33%	0 to 33%	–
c1ccc(Nc2cc3[nH]c(-c4cccnc4)cc3cn2)cc1 [Example 189, N-phenyl-2-(pyridin-3-yl)-1H-pyrrolo[3,2-c]pyridin-6-amine]	–	–	–	inhibition at 1 µM (single point inhibition @ 1 uM): 0 to 33%; inhibition at 10 µM [3]: 67 to 100%
Cn1c(-c2cc(C(F)(F)F)ncn2)cc2cnc(NC(=O)C3CC3)cc21 [Example 130, N-(1-methyl-2-(6-(trifluoromethyl)pyrimidin-4-yl)-1H-pyrrolo[3,2-c]pyridin-6-yl)cyclopropanecarboxamide]	> 1 µM	–	–	–
CC(C)(O)c1cc(-c2cc3cnc(Nc4cccc(-c5nc[nH]n5)c4)cc3[nH]2)ccn1 [Example 215, 2-(4-(6-(3-(1H-1,2,4-triazol-3-yl)phenylamino)-1H-pyrrolo[3,2-c]pyridin-2-yl)pyridin-2-yl)propan-2-ol]	–	33 to 66%	67 to 100%	–
Cc1ccnc(-c2cc3cnc(NC4CCOCC4)cc3[nH]2)c1 [Example 350, 2-(4-methylpyridin-2-yl)-N-(tetrahydro-2H-pyran-4-yl)-1H-pyrrolo[3,2-c]pyridin-6-amine]	> 1 µM	–	–	–
O=C(Nc1cc2[nH]c(-c3ccncc3)cc2cn1)C1CCCC1 [Example 137, N-(2-(pyridin-4-yl)-1H-pyrrolo[3,2-c]pyridin-6-yl)cyclopentanecarboxamide]	–	–	–	inhibition at 1 µM (single point inhibition @ 1 uM): 0 to 33%; inhibition at 10 µM [3]: 67 to 100%
CC(C)n1cc(-c2cc3cnc(NC4CCOCC4)cc3n2C)cn1 [Example 241, 2-(1-isopropyl-1H-pyrazol-4-yl)-1-methyl-N-(tetrahydro-2H-pyran-4-yl)-1H-pyrrolo[3,2-c]pyridin-6-amine]	–	33 to 66%	0 to 33%	–
Cc1cc(-c2cc3cnc(NC(=O)C4CC4)cc3[nH]2)ccc1F [Example 340, N-(2-(4-fluoro-3-methylphenyl)-1H-pyrrolo[3,2-c]pyridin-6-yl)cyclopropanecarboxamide]	–	0 to 33%	0 to 33%	–
O=C(Nc1cc2[nH]c(C(F)(F)F)cc2cn1)C1CCOCC1 [Example 105, N-(2-(trifluoromethyl)-1H-pyrrolo[3,2-c]pyridin-6-yl)tetrahydro-2H-pyran-4-carboxamide]	> 1 µM	–	–	–
COc1nccc(-c2cc3cnc(NC(=O)c4cnn(C(C)C)c4)cc3[nH]2)n1 [Example 177, 1-isopropyl-N-(2-(2-methoxypyrimidin-4-yl)-1H-pyrrolo[3,2-c]pyridin-6-yl)-1H-pyrazole-4-carboxmaide]	–	–	–	inhibition at 1 µM (single point inhibition @ 1 uM): 0 to 33%; inhibition at 10 µM [3]: 67 to 100%
CCOc1nccc(-c2cc3cnc(NC(=O)CC4COC4)cc3[nH]2)n1 [Example 139, N-(2-(2-ethoxypyrimidin-4-yl)-1H-pyrrolo[3,2-c]pyridin-6-yl)-2-(oxetan-3-yl)acetamide]	–	–	–	inhibition at 1 µM (single point inhibition @ 1 uM): 0 to 33%; inhibition at 10 µM [3]: 67 to 100%
COc1nccc(-c2cc3cnc(NC(=O)C4C5CCCCC54)cc3n2C)n1 (centres unmarked) [Example 211, N-(2-(2-methoxypyrimidin-4-yl)-1-methyl-1H-pyrrolo[3,2-c]pyridin-6-yl)bicyclo[4.1.0]heptane-7-carboxamide]	–	0 to 33%	67 to 100%	–

SMILES	EC50	inhibition at 1 µM [1]	inhibition at 10 µM [2]	further results
CN1CCC(c2cc3cnc(NC(=O)C4CC4)cc3[nH]2)CC1 [Example 255, N-(2-(1-methylpiperidin-4-yl)-1H-pyrrolo[3,2-c]pyridin-6-yl)cyclopropanecarboxamide]	–	0 to 33%	0 to 33%	–
Cc1ccccc1-c1cc2cnc(NC3CCOCC3)cc2[nH]1 [Example 357, N-(tetrahydro-2H-pyran-4-yl)-2-o-tolyl-1H-pyrrolo[3,2-c]pyridin-6-amine]	> 1 µM	–	–	–
Cc1cc(-c2cc3cnc(NCC4CC4)cc3[nH]2)ccn1 [Example 67, N-(cyclopropylmethyl)-2-(2-methylpyridin-4-yl)-1H-pyrrolo[3,2-c]pyridin-6-amine]	> 1 µM	–	–	–
Cc1cc(-c2cc3cnc(NC4CCOC4)cc3[nH]2)ccn1 (stereo in doubt) [Example 52, (S)-2-(2-methylpyridin-4-yl)-N-(tetrahydrofuran-3-yl)-1H-pyrrolo[3,2-c]pyridin-6-amine]	> 1 µM	–	–	–
Cn1cnc(-c2cc3cnc(NC(=O)C4CC4)cc3[nH]2)n1 [Example 65, N-(2-(1-methyl-1H-1,2,4-triazol-3-yl)-1H-pyrrolo[3,2-c]pyridin-6-yl)cyclopropanecarboxamide]	> 1 µM	–	–	–
COc1cc(Nc2cc3[nH]c(-c4ccncc4)cc3cn2)cc(-n2cncn2)c1 [Example 140, N-(3-methoxy-5-(1H-1,2,4-triazol-1-yl)phenyl)-2-(pyridin-4-yl)-1H-pyrrolo[3,2-c]pyridin-6-amine]	–	–	–	inhibition at 1 µM (single point inhibition @ 1 uM): 0 to 33%; inhibition at 10 µM [3]: 67 to 100%
COc1nccc(-c2cc3cnc(NC(=O)c4cccc5[nH]ncc45)cc3[nH]2)n1 [Example 269, N-(2-(2-methoxypyrimidin-4-yl)-1H-pyrrolo[3,2-c]pyridin-6-yl)-1H-indazole-4-carboxamide]	–	0 to 33%	0 to 33%	–
COc1nccc(-c2cc3cnc(NC(=O)C(C)(C)C)cc3[nH]2)n1 [Example 297, N-(2-(2-methoxypyrimidin-4-yl)-1H-pyrrolo[3,2-c]pyridin-6-yl)pivalamide]	–	0 to 33%	0 to 33%	–
Cn1cncc1-c1cc2cnc(Nc3ccc(F)cc3)cc2[nH]1 [Example 229, N-(4-fluorophenyl)-2-(1-methyl-1H-imidazol-5-yl)-1H-pyrrolo[3,2-c]pyridin-6-amine]	–	33 to 66%	33 to 66%	–
O=C(Nc1cc2[nH]c(-c3ccnc(OCCF)n3)cc2cn1)c1cnn(C2CCOCC2)c1 [Example 225, N-(2-(2-(2-fluoroethoxy)pyrimidin-4-yl)-1H-pyrrolo[3,2-c]pyridin-6-yl)-1-(tetrahydro-2H-pyran-4-yl)-1H-pyrazole-4-carboxamide]	–	0 to 33%	33 to 66%	–
Cc1cc(-c2cc3cnc(NC(=O)C4CCCO4)cc3[nH]2)ccn1 (stereo in doubt) [Example 182, (S)-N-(2-(2-methylpyridin-4-yl)-1H-pyrrolo[3,2-c]pyridin-6-yl)tetrahydrofuran-2-carboxamide]	–	–	–	inhibition at 1 µM (single point inhibition @ 1 uM): 0 to 33%; inhibition at 10 µM [3]: 67 to 100%
Cc1cc(-c2cc3cnc(NC(=O)C45CC(C4)C5)cc3[nH]2)ccn1 [Example 298, N-(2-(2-methylpyridin-4-yl)-1H-pyrrolo[3,2-c]pyridin-6-yl)bicyclo[1.1.1]pentane-1-carboxamide]	–	0 to 33%	0 to 33%	–
Cn1c(-c2ccnc(C(F)(F)F)n2)cc2cnc(NC(=O)C3CC3)cc21 [Example 302, N-(1-methyl-2-(2-(trifluoromethyl)pyrimidin-4-yl)-1H-pyrrolo[3,2-c]pyridin-6-yl)cyclopropanecarboxamide]	–	0 to 33%	0 to 33%	–
CNc1cc2c(cn1)cc(-c1ccnc(NCC(F)(F)F)n1)n2C [Example 390, N,1-dimethyl-2-(2-(2,2,2-trifluoroethylamino)pyrimidin-4-yl)-1H-pyrrolo[3,2-c]pyridin-6-amine]	> 1 µM	–	–	–
Cn1cc(C(=O)Nc2cc3[nH]c(C(F)(F)F)cc3cn2)cn1 [Example 341, 1-methyl-N-(2-(tirfluoromethyl)-1H-pyrrolo[3,2-c]pyridin-6-yl)-1H-pyrazole-4-carboxamide]	–	0 to 33%	0 to 33%	–
Cc1cc(-c2cc3cnc(NC(=O)c4cc(C(F)F)nn4C)cc3[nH]2)ccn1 [Example 218, 3-(difluoromethyl)-1-methyl-N-(2-(2-methylpyridin-4-yl)-1H-pyrrolo[3,2-c]pyridin-6-yl)-1H-pyrazole-5-carboxamide]	–	0 to 33%	33 to 66%	–
c1nc(NC2CCOCC2)cc2[nH]c(C3CCCCC3)cc12 [Example 26, 2-Cyclohexyl-N-(tetrahydro-2H-pyran-4-yl)-1H-pyrrolo[3,2-c]pyridin-6-amine]	> 1 µM	–	–	–
